These results are taken from ChEMBL document CHEMBL1201862, “PubChem BioAssay data set” (2004).

By IC50 is commonly meant the concentration needed to halve the response being measured. As usually defined, the EC50 is the concentration that produces a half-maximal response. In general, CC50 refers to the concentration giving 50% cytotoxicity.

In test [1] the target is T1, Tyrosine-protein phosphatase non-receptor type 7 (Homo sapiens, UniProt P35236).
T1 sequence (P35236 whole entry): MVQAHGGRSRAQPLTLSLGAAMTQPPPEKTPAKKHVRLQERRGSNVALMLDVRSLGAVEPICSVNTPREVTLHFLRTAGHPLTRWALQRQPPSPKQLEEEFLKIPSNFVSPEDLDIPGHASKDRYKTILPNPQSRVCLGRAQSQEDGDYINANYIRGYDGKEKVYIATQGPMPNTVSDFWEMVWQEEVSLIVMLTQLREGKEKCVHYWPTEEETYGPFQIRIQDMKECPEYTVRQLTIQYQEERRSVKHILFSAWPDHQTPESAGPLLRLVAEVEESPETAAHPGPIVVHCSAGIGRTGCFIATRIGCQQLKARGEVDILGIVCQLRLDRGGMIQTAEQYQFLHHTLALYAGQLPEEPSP
The test is described as follows: redox-dependent HePTP inhibition, mechanism study, biochemical, fluorescence (AID 2068). In kind it is functional.

Test [2] has as its target Induced myeloid leukemia cell differentiation protein Mcl-1 (Homo sapiens, UniProt Q07820). The format is functional.
The target of test [3] is Ephrin type-A receptor 4 (Mus musculus, UniProt Q03137). Put plainly: inhibitors of EphA4 binding to KYL peptide, primary screen, biochemical, colorimetric, mouse EphA4 (AID 689). In kind it is functional.
The nature of test [4]: cytotoxicity in HPDE-C7 cells, cell-based, fluorescence, HTS (AID 430). The format is functional. The note with it: Homo sapiens.
Test [5] has as its target G-protein coupled receptor 55 (Homo sapiens, UniProt Q9Y2T6). The test is described as follows: GPR55 agonists via beta-arrestin recruitment, primary screen, imaging, U2OS cells, beta-arrestin-GFP redistribution (AID 1961). In kind it is functional.
Test [6] can be described thus: cytotoxicity in KRAS-transformed pancreatic duct cells, primary screen, cell-based, fluorescence, HTS (AID 431).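 Note: cell line used: HPDE-C7K.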 The note with it: Homo sapiens. The format is functional.
Test [7] concerns the target T1, Tyrosine-protein phosphatase non-receptor type 7. Put plainly: Dose Response confirmation of compounds that inhibit HePTP. [Related pubchem assays (depositor defined):AID1059, AID1661, AID2085]. The format is functional.
Test [8] concerns the target T2, Dual specificity protein phosphatase 3 (Homo sapiens, UniProt P51452). Put plainly: Dose Response Confirmation of compounds that inhibit VHR1 in Fluorescent Assay. [Related pubchem assays (depositor defined):AID1661, AID1878]. The format is functional.
The target of test [9] is T2, Dual specificity protein phosphatase 3. The test is described as follows: SAR VHR1 Fluorescent Assay for In Vitro dose response studies Set 2. [Related pubchem assays (depositor defined):AID1654, AID1661, AID1878]. In kind it is functional.
For test [10], the target named is T1, Tyrosine-protein phosphatase non-receptor type 7. The test is described as follows: SAR analysis of chemical inhibitors of HePTP using a Fluorescent assay - Set 2. [Related pubchem assays (depositor defined):AID1059, AID1077, AID1661, AID2085, AID521]. The format is functional.
Test [11] has as its target Phosphoethanolamine/phosphocholine phosphatase (Homo sapiens, UniProt Q8TCT1). The test is described as follows: SAR assay for compounds that inhibit PHOSPHO1. [Related pubchem assays (depositor defined):AID1545, AID1565, AID1574].
For test [12], the target named is Mitochondrial peptide methionine sulfoxide reductase (Bos taurus, UniProt P54149). Put plainly: Absorbance-based biochemical high throughput dose response assay for activators of Methionine sulfoxide reductase A (MsrA). In kind it is functional.
The target in test [13] is Glucose-6-phosphate 1-dehydrogenase (Homo sapiens, UniProt P11413). Put plainly: human G6PD enzyme inhibitors, dose response, selectivity assay for P. falciparum G6PD inhibitor project, biochemical, fluorescence (AID 504792). The format is functional.
Test [14] concerns the target T3, Mannose-6-phosphate isomerase (Homo sapiens, UniProt P34949).
T3 sequence (P34949 whole entry): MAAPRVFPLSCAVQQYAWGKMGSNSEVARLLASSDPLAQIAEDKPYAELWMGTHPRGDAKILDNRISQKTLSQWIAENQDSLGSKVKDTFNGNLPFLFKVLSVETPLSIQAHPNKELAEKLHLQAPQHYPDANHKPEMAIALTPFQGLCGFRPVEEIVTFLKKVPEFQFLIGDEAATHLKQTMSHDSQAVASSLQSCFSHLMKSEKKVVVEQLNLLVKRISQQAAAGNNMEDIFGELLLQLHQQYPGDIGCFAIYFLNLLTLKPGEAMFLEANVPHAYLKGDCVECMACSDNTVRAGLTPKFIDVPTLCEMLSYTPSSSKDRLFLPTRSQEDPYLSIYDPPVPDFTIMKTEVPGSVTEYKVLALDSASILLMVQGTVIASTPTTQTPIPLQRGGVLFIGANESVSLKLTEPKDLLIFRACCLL
The test is described as follows: PMI enzyme inhibitors, confirmation, biochemical, fluorescence intensity (AID 1535).

Test [15] can be described thus: HeLa cell cytotoxicity, dose response, cytotoxicity control for MgcRacGAP inhibitor project (AID 624300). The format is functional.
The target of test [16] is T4, Rac GTPase-activating protein 1 (Homo sapiens, UniProt Q9H0H5).
T4 sequence (Q9H0H5 whole entry): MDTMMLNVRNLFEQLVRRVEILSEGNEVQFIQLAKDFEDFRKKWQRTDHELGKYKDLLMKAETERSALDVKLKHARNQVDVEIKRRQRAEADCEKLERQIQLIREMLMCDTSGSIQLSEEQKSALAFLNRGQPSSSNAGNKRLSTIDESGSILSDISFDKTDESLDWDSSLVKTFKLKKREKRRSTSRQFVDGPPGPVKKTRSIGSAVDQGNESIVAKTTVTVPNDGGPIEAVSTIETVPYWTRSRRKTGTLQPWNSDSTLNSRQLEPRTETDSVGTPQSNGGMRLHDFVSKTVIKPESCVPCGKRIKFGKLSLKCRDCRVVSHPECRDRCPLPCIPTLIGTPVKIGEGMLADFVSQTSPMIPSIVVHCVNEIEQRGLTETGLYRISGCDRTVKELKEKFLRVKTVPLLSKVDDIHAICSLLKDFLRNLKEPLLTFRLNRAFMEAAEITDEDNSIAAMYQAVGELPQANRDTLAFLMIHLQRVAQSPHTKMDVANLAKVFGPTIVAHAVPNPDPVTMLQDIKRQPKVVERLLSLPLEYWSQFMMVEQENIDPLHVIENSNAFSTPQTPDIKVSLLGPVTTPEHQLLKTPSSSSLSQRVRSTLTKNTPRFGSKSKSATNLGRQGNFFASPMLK
The test is described as follows: MgcRacGAP GTPase-activating activity inhibitors, confirmation, biochemical, ADP Hunter fluorescence, primary and confirmatory (AID 624330). The format is functional.

Test [17] has as its target Phosphomannomutase 2 (Homo sapiens, UniProt O15305). Put plainly: Counter screen SAR assay for PMM2 inhibitors via a fluorescence intensity assay. [Related pubchem assays (depositor defined):AID1545, AID1574]. (In general: The purpose of a counterscreen is to sort out artefacts and off-target activity.)
For test [18], the target named is T5, Hexokinase (Trypanosoma brucei, UniProt Q38C41).
T5 sequence (Q38C41 whole entry): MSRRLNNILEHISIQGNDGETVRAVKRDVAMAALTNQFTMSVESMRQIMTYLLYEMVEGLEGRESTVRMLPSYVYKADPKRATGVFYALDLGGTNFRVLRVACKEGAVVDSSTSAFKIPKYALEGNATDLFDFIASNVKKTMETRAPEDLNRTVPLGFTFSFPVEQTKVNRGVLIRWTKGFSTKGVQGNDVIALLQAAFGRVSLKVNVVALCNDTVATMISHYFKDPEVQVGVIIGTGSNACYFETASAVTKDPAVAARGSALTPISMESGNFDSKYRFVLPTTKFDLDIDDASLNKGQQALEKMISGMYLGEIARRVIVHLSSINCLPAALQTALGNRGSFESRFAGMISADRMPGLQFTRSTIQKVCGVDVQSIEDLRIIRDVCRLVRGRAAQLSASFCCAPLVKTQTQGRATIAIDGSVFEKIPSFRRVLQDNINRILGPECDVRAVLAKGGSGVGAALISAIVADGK
The test is described as follows: Confirmation assay for inhibitors of Trypanosoma brucei hexokinase 1-Analogue-first series. [Related pubchem assays (depositor defined):AID1430, AID1632, AID2516, AID2560, AID2579, AID2600, AID449725, AID492951]. The format is functional.

The test system of test [19] is Vero. Put plainly: West Nile virus CPE inhibition, SAR follow-up, cell-based, synthesized analogs (AID 2238). In kind it is functional. The note with it: Chlorocebus sabaeus.
Test [20] has as its system Vero. Put plainly: cytotoxicity of synthesized analogs in Vero cells, SAR follow-up, cytotoxicity control for West Nile virus antiviral project, cell-based, set II (AID 2402). The format is functional. The note with it: Chlorocebus sabaeus.
Test [21] in a line: A Cell Based Assay for the Identification of Probe candidate Compounds with Anti- Venezuelan Equine Encephalitis virus. [Related pubchem assays: 2409, 2419, 1621, 2238, 2405, 2024, 2065, 2402, 2414, 1635, 1650, 2244 ]. The format is functional.
The test system of test [22] is Vero. Put plainly: cytotoxicity of synthesized analogs in Vero 76, SAR follow-up, cytotoxicity control for West Nile virus antiviral project, Vero 76 cells (AID 2414). The format is functional. The settings on record: Chlorocebus sabaeus.
Test [23] concerns Vero. The test is described as follows: Vero E6 cell cytotoxicity, SAR follow-up, cytotoxicity control for West Nile virus antiviral project, synthesized analogs (AID 2244). The note with it: Chlorocebus sabaeus. The format is functional.
The target in test [24] is Eukaryotic translation initiation factor 4H (Homo sapiens, UniProt Q15056). The test is described as follows: eIF4H inhibition in translation initiation, SAR follow-up (AID 435011). In kind it is functional.
Test [25] addresses Polyadenylate-binding protein 1 (Homo sapiens, UniProt P11940). The test is described as follows: PABP inhibition in translation initiation, SAR follow-up (AID 435018). The format is functional.
Test [26] deals with 5-hydroxytryptamine receptor 2A (Mus musculus, UniProt P35363). The format is functional, cell-based.
The target of test [27] is T6, Type-1 angiotensin II receptor (Homo sapiens, UniProt P30556).
T6 sequence (P30556 whole entry): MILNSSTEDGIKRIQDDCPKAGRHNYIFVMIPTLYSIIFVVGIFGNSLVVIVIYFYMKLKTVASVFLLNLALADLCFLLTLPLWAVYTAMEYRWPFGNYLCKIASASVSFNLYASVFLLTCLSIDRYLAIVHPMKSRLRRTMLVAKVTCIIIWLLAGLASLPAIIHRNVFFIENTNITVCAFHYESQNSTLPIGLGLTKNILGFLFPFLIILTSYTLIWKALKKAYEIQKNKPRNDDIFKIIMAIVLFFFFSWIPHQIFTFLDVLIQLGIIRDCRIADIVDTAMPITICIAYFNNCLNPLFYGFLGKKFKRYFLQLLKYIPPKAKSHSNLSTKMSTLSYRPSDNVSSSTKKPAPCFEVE
The test is described as follows: AT1 receptor agonists, dose response, selectivity assay for APJ receptor agonist project, cell-based, uHTS hits (AID 488865).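 Note: beta-arrestin recruitment to AT1 measured by enzyme fragment complementation luminescence.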 In kind it is functional.

Calls of active or inactive are those of the source. A value given as a limit tells only on which side of the number the result lay.

T2 sequence (P51452 whole entry): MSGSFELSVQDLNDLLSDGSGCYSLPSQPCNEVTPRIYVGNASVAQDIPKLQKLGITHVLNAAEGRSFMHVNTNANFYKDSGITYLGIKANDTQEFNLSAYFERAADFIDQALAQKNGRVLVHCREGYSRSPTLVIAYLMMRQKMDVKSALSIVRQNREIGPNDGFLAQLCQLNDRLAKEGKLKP
Ephrin type-A receptor 4, sequence (Q03137 whole entry): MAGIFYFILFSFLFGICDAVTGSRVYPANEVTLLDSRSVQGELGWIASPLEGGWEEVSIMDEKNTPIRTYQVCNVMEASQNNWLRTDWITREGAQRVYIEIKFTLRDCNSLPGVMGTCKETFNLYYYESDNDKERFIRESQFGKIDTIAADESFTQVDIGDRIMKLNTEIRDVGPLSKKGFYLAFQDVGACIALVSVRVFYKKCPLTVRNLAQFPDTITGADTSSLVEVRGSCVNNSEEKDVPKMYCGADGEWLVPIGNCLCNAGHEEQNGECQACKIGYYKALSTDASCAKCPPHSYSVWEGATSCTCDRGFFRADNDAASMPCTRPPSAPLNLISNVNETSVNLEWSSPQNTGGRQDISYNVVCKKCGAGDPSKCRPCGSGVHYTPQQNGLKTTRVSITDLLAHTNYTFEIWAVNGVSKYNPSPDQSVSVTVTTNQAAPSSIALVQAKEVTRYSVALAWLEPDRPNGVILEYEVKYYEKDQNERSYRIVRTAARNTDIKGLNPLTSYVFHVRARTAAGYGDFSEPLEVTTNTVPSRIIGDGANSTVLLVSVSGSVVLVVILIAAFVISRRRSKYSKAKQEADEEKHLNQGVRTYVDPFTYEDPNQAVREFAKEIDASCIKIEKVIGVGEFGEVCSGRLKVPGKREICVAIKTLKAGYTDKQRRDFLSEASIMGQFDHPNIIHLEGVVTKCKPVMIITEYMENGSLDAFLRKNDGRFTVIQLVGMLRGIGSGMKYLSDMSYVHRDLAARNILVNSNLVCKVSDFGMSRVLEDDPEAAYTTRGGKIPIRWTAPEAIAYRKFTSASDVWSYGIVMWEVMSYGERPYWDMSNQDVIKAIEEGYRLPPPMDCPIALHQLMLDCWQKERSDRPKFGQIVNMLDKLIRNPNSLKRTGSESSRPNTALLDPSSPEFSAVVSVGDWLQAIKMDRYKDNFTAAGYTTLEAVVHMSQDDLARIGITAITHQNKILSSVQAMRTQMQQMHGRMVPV
5-hydroxytryptamine receptor 2A, sequence (P35363 whole entry): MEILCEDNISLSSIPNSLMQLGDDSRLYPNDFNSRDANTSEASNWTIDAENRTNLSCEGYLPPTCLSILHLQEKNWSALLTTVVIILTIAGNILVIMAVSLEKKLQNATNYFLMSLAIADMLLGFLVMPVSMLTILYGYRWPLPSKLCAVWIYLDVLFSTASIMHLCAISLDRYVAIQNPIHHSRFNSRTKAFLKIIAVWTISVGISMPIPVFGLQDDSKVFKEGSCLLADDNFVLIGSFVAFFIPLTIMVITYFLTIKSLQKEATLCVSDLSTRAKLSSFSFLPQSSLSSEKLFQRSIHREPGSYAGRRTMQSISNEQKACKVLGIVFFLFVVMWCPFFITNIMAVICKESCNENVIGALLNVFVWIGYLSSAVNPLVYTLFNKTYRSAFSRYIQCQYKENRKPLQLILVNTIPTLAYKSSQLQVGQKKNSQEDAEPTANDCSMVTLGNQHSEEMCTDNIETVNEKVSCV
Phosphomannomutase 2, sequence (O15305 whole entry): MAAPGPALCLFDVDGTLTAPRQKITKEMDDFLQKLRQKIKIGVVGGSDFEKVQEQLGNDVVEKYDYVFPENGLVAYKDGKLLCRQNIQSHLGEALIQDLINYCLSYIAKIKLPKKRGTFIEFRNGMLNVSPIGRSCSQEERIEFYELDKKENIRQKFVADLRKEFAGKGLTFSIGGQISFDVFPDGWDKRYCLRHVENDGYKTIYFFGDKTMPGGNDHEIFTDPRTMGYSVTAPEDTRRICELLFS
Mitochondrial peptide methionine sulfoxide reductase, sequence (P54149 whole entry): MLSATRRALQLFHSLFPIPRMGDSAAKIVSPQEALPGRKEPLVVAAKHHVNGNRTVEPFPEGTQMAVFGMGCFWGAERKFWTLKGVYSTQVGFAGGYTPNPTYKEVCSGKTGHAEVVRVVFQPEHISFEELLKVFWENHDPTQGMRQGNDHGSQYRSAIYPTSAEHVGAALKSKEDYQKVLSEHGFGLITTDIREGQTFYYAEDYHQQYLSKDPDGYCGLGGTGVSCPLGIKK
Glucose-6-phosphate 1-dehydrogenase, sequence (P11413 whole entry): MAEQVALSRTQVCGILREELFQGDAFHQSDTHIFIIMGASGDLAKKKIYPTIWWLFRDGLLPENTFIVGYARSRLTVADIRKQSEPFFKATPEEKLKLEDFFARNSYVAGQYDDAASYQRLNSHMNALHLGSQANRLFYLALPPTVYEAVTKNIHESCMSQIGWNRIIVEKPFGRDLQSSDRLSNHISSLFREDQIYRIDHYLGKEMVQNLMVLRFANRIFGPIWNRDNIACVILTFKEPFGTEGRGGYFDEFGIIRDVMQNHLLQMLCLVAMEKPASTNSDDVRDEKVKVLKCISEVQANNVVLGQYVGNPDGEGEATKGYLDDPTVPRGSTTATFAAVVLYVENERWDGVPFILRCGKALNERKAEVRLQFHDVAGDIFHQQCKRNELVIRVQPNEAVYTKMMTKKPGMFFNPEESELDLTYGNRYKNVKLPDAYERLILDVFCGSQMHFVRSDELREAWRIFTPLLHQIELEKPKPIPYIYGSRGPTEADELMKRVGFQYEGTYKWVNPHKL
Polyadenylate-binding protein 1, sequence (P11940 whole entry): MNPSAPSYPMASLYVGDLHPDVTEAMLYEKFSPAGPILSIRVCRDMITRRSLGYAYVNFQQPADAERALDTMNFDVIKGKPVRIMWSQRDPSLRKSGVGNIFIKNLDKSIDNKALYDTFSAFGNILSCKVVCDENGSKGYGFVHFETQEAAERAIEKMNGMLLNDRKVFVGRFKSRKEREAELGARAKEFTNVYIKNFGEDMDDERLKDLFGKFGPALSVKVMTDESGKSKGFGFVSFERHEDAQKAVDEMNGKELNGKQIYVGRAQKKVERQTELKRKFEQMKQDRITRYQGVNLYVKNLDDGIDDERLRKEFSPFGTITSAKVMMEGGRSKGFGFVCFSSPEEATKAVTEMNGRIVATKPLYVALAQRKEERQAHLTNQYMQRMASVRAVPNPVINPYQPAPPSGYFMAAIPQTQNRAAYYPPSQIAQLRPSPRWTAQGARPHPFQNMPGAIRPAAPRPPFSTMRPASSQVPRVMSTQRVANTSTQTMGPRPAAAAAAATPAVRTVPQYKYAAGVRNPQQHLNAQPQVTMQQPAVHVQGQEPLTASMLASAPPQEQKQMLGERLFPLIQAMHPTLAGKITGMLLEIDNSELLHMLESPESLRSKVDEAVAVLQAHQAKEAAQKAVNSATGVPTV
Phosphoethanolamine/phosphocholine phosphatase, sequence (Q8TCT1 whole entry): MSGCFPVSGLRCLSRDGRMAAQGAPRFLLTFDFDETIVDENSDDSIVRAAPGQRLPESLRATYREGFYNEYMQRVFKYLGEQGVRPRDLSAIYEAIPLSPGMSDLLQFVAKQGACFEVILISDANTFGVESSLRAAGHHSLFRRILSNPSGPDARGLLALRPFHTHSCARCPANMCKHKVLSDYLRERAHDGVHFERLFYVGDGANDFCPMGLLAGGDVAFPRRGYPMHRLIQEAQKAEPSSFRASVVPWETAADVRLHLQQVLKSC
Induced myeloid leukemia cell differentiation protein Mcl-1, sequence (Q07820 whole entry): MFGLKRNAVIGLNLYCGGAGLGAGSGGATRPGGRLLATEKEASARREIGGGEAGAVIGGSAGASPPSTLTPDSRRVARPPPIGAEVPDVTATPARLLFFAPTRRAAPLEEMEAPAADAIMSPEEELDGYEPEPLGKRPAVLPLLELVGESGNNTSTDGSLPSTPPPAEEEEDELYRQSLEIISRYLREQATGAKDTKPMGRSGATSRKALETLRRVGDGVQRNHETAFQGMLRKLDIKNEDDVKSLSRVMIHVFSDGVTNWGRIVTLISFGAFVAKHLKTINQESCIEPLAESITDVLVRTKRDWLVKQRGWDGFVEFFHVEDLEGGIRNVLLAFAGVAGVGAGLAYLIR
G-protein coupled receptor 55, sequence (Q9Y2T6 whole entry): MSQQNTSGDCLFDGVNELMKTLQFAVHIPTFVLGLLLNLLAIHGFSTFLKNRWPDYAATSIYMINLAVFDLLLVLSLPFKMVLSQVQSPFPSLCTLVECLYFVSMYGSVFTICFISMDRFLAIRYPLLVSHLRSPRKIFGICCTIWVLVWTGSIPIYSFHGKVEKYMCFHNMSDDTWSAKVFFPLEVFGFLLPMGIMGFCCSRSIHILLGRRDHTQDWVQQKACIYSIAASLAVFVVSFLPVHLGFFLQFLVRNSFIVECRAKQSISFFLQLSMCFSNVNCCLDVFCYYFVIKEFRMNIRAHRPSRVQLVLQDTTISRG

As to `O=S(=O)(c1ccc2nc(-c3ccco3)c(-c3ccco3)nc2c1)N1CCOCC1`, the IC50 in test [1] was 7.46 µM (active); in test [2], 5.65 µM (active); in [3] it was 21.5 µM (active).

Regarding `CC/C(Nc1ccc(OC)cc1OC)=C1/C(=O)NC(=O)N(C2CCCCC2)C1=O`, the results for the EC50 in test [4], in [5] and in test [6] were 12.8 µM (active), 10.9 µM (inactive) and 16.3 µM (active), respectively.

For `Cn1c2ccccc2c(=O)c2ccc(C#Cc3ccccn3)cc21`, the IC50 in test [7] was 6.64 µM (active); in test [8], 7.2 µM (active).

With `O=S(=O)(Nc1ncccn1)c1ccc(NC(=S)N2CCN(Cc3ccc4c(c3)OCO4)CC2)cc1`, the IC50 in test [9] and in test [10] was > 100 µM (inactive) throughout.

As to `O=c1c2ccccc2sn1-c1cccc(Cl)c1`, the IC50 is 5.21 µM (inactive) in [11]; 13 µM (active) in test [13]; 3.43 µM (active) in [14]; 33.9 µM (active) in test [16]; 59.6 µM (active) in test [17]; 1.9 µM (active) in [18]. Further, in test [12], the EC50 is > 104 µM (inactive). Besides, in test [15], the CC50 is 100 µM (active).

In the case of `O=C(CSc1nc2ccccc2c(=O)n1-c1ccc(Cl)cc1)Nc1ccc2c(c1)CCC2`, the IC50 in [19] was > 40 µM (active); in test [21] it was 7.56 µM (active). The CC50 in [20] was > 100 µM (active); in test [22], > 66.6 µM (active); in test [23], > 40 µM (active).

`COc1ccc([N+](=O)[O-])cc1NC(=O)C(C)OC(=O)c1ccccc1C(=O)c1ccc(Cl)cc1` (configuration not stated): the IC50 in test [24] and in test [25] was > 100 µM (inactive) each time.

Consider `COC(=O)C1=C(Cn2cnc3ccccc32)NC(=O)NC1c1cc(C)ccc1C` (configuration not stated), for which the EC50 in test [26] was 8.44 µM (active); in test [27], > 100 µM (inactive).
